Columns and labels:
PARP-1 enzyme [1] = molecular target: T1, PARP-1 enzyme (Homo sapiens, UniProt P09874); assay: In vitro Scintillation Proximity Assay (SPA) for PARP-1 inhibitory activity; assay type: biochemical; settings: nicked DNA activated PARP-1, [3H]-NAD+, biotinylated histones; read-out: In vitro SPA pIC50 (converted)
T1 construct: made in house
Protocol: Pharmacological Example In Vitro Scintillation Proximity Assay (SPA) for PARP-1 Inhibitory Activity
Compounds of the present invention were tested in an in vitro assay based on SPA technology (proprietary to Amersham Pharmacia Biotech).
In principle, the assay relies upon the well established SPA technology for the detection of poly(ADP-ribosyl)ation of biotinylated target proteins, i.e histones. This ribosylation is induced using nicked DNA activated PARP-1 enzyme and [^3H]-nicotinamide adenine dinucleotide ([^3H]-NAD^+) as ADP-ribosyl donor.
As inducer of PARP-1 enzyme activity, nicked DNA was prepared. For this, 25 mg of DNA (supplier: Sigma) was dissolved in 25 ml DNAse buffer (10 mM Tris-HCl, pH 7.4; 0.5 mg/ml Bovine Serum Albumine (BSA); 5 mM MgCl2.6H2O and 1 mM KCl) to which 50 μl DNAse solution (1 mg/ml in 0.15 M NaCl) was added. After an incubation of 90 min. at 37° C., the reaction was terminated by adding 1.45 g NaCl, followed by a further incubation at 58° C. for 15 min. The reaction mixture was cooled on ice and dialysed at 4° C. for respectively 1.5 and 2 hours against 1.5 l of 0.2 M KCl, and twice against 1.5 l of 0.01 M KCl for 1.5 and 2 h respectively. The mixture was aliquoted and stored at −20° C. Histones (1 mg/ml, type II-A, supplier: Sigma) were biotinylated using the biotinylation kit of Amersham and stored aliquoted at −20° C. A stock solution of 100 mg/ml SPA poly(vinyl toluene) (PVT) beads (supplier: Amersham) was made in PBS. A stock solution of [^3H]-NAD^+ was made by adding 120 μl of [^3H]-NAD^+ (0.1 mCi/ml, supplier: NEN) to 6 ml incubation buffer (50 mM Tris/HCl, pH 8; 0.2 mM DTT; 4 mM MgCl2). A solution of 4 mM NAD^+ (supplier: Roche) was made in incubation buffer (from a 100 mM stock solution in water stored at −20° C.). The PARP-1 enzyme was produced using art known techniques, i.e. cloning and expression of the protein starting from human liver cDNA. Information concerning the used protein sequence of the PARP-1 enzyme including literature references can be found in the Swiss-Prot database under primary accession number P09874. Biotinylated histones and PVT-SPA beads were mixed and pre-incubated for 30 min. at room temperature. PARP-1 enzyme (concentration was lot dependent) was mixed with the nicked DNA and the mixture was pre-incubated for 30 min. at 4° C. Equal parts of this histones/PVT-SPA beads solution and PARP-1 enzyme/DNA solution were mixed and 75 μl of this mixture together with 1 μl of compound in DMSO and 25 μl of [^3H]-NAD^+ was added per well into a 96-well microtiterplate. The final concentrations in the incubation mixture were 2 μg/ml for the biotinylated histones, 2 mg/ml for the PVT-SPA beads, 2 μg/ml for the nicked DNA and between 5-10 μg/ml for the PARP-1 enzyme. After incubation of the mixture for 15 min. at room temperature, the reaction was terminated by adding 100 μl of 4 mM NAD^+ in incubation buffer (final concentration 2 mM) and plates were mixed.
The beads were allowed to sediment for at least 15 min. and plates transferred to a TopCountNXT™ (Packard) for scintillation counting, values were expressed as counts per minute (cpm). For each experiment, controls (containing PARP-1 enzyme and DMSO without compound), a blank incubation (containing DMSO but no PARP-1 enzyme or compound) and samples (containing PARP-1 enzyme and compound dissolved in DMSO) were run in parallel. All compounds tested were dissolved and eventually further diluted in DMSO. […] In each test, the blank value was subtracted from both the control and the sample values. The control sample represented maximal PARP-1 enzyme activity. For each sample, the amount of cpm was expressed as a percentage of the mean cpm value of the controls. When appropriate, IC50-values (concentration of the drug, needed to reduce the PARP-1 enzyme activity to 50% of the control) were computed using linear interpolation between the experimental points just above and below the 50% level. […]

PARP-1 enzyme [2] = molecular target: T1, PARP-1 enzyme; assay: In vitro filtration assay for PARP-1 inhibitory activity; assay type: biochemical; settings: nicked DNA activated PARP-1, [32P]-NAD, histones; read-out: In vitro filtration assay pIC50 (converted)
Protocol: In Vitro Filtration Assay for PARP-1 Inhibitory Activity
Compounds of the present invention were tested in an in vitro filtration assay assessing PARP-1 activity (triggered in the presence of nicked DNA) by means of its histone poly (ADP-ribosyl)ation activity using [^32P]-NAD as ADP-ribosyl donor. The radioactive ribosylated histones were precipitated by trichloroacetic acid (TCA) in 96-well filterplates and the incorporated [^32P] measured using a scintillation counter A mixture of histones (stock solution: 5 mg/ml in H2O), NAD^+ (stock solution: 100 mM in H2O), and [^32P]-NAD^+ in incubation buffer (50 mM Tris/HCl, pH 8; 0.2 mM DTT; 4 mM MgCl2) was made. A mixture of the PARP-1 enzyme (5-10 μg/ml) and nicked DNA was also made. The nicked DNA was prepared as described in the in vitro SPA for PARP-1 inhibitory activity. Seventy-five μl of the PARP-1 enzyme/DNA mixture together with 1 μl of compound in DMSO and 25 μl of histones-NAD^+/[^32P]-NAD^+ mixture was added per well of a 96-well filterplate (0.45 μm, supplier Millipore). The final concentrations in the incubation mixture were 2 μg/ml for the histones, 0.1 mM for the NAD^+, 200 μM (0.5 μC) for the [^32P]-NAD^+ and 2 μg/ml for the nicked DNA. Plates were incubated for 15 min. at room temperature and the reaction was terminated by the addition of 10 μl ice cold 100% TCA followed by the addition of 10 μl ice-cold BSA solution (1% in H2O). The protein fraction was allowed to precipitate for 10 min. at 4° C. and plates were vacuum filtered. The plates were subsequently washed with, for each well, 1 ml of 10% ice cold TCA, 1 ml of 5% ice cold TCA and 1 ml of 5% TCA at room temperature. Finally 100 μl of scintillation solution (Microscint 40, Packard) was added to each well and the plates were transferred to a TopCountNXT™ (supplier: Packard) for scintillation counting and values were expressed as counts per minute (cpm). For each experiment, controls (containing PARP-1 enzyme and DMSO without compound), a blank incubation (containing DMSO but no PARP-1 enzyme or compound) and samples (containing PARP-1 enzyme and compound dissolved in DMSO) were run in parallel. All compounds tested were dissolved and eventually further diluted in DMSO. In first instance, compounds were tested at a concentration of 10^−5M. […] In each test, the blank value was subtracted from both the control and the sample values. The control sample represented maximal PARP-1 enzyme activity. For each sample, the amount of cpm was expressed as a percentage of the mean cpm value of the controls. When appropriate, IC50-values (concentration of the drug, needed to reduce the PARP-1 enzyme activity to 50% of the control) were computed using linear interpolation between the experimental points just above and below the 50% level. Herein the effects of test compounds are expressed as pIC50 (the negative log value of the IC50-value). As a reference compound, 4-amino-1,8-naphthalimide was included to validate the filtration assay.

T1 sequence (P09874 whole entry): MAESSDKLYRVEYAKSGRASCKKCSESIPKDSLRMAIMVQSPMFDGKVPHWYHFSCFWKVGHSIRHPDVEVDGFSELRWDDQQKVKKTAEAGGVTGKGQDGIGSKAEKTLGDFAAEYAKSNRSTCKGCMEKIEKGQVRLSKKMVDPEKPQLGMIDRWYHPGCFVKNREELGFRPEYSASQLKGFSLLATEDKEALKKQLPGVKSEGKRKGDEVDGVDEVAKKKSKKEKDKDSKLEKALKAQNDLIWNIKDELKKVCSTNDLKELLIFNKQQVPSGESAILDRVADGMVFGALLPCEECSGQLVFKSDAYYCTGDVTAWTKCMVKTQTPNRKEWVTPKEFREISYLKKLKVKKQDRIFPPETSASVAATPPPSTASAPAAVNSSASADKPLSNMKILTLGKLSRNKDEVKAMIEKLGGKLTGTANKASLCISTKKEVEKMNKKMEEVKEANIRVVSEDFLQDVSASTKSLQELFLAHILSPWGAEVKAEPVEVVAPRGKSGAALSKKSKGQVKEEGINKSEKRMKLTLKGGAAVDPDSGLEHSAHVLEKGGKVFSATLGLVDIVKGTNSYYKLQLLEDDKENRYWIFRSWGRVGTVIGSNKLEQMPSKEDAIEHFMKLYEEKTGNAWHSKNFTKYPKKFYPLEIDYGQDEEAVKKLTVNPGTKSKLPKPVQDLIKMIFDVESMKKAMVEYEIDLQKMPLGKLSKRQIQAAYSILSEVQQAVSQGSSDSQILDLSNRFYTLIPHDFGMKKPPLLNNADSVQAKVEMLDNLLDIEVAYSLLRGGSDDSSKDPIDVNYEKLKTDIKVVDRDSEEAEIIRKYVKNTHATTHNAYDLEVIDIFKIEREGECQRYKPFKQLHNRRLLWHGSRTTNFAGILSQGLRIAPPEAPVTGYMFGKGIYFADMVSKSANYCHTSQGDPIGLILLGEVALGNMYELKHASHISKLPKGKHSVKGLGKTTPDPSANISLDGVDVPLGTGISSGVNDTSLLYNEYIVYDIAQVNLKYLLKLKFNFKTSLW

SMILES | IC50 (PARP-1 enzyme [1]) [nM] | IC50 (PARP-1 enzyme [2]) [nM] | melting point [°C]
CCc1cc2cc(C(C3CCCCCC3)N3CCC(=O)CC3)ccc2[nH]c1=O (stereo not drawn) [Co. No. 2] | 232 | 568 | 218
CCOC(=O)C1CCN(C(C)Cc2ccc3[nH]c(=O)c(CC)nc3c2)CC1 (stereo not drawn) [Co. No. 3] | 861 | – | 163
CCc1cc2cc(C(c3cccnc3)N3CCC(=O)CC3)ccc2[nH]c1=O (stereo not drawn) [Co. No. 22] | 198 | 1180 | –
CCc1cc2cc([C@@H](C3CCCCC3)N3CCN(CCOC)CC3)ccc2[nH]c1=O [Co. No. 30] | 1280 | 9180 | –
CCc1cc2cc(C(C3CCCCC3)N3CCC(N4CCOCC4)CC3)ccc2[nH]c1=O (stereo not drawn) [Co. No. 35] | 640 | 3400 | –
CCc1cc2cc(C(C3CCCCC3)N3CCC4(CC3)CO4)ccc2[nH]c1=O (stereo not drawn) [Co. No. 4] | 300 | 1520 | 200
CCc1cc2cc(CCN3CCC(NCCOC)CC3)ccc2[nH]c1=O [Co. No. 37] | 853 | – | –
CCc1cc2cc(C(c3ccsc3)N3CCC(=O)CC3)ccc2[nH]c1=O (stereo not drawn) [Co. No. 23] | 232 | 1260 | –
CCc1cc2cc(C(O)CN3CCOCC3)ccc2[nH]c1=O (stereo not drawn) [Co. No. 15] | 288 | 2540 | –
CCc1nc2cc(C(C(C)C)N3CCC(c4n[nH]c5cc(F)ccc45)CC3)ccc2[nH]c1=O (stereo not drawn) [Co. No. 26] | 536 | – | –
CCc1cc2cc(C(NCCN(C)C)C3CCCCC3)ccc2[nH]c1=O (stereo not drawn) [Co. No. 25] | 1110 | 6010 | –
CCc1cc2cc(C(O)CN3CCCCC3)ccc2[nH]c1=O (stereo not drawn) [Co. No. 1] | 329 | 349 | 172
CCc1cc2cc(C(SCCN(C)C)C3CCCCC3)ccc2[nH]c1=O (stereo not drawn) [Co. No. 20] | 600 | 1840 | –
CCc1cc2cc(C(=O)CN3CCOCC3)ccc2[nH]c1=O [Co. No. 36] | 568 | 2610 | –
CCc1cc2cc(C(C3CCCCC3)N3CCC(NCc4cccnc4)CC3)ccc2[nH]c1=O (stereo not drawn) [Co. No. 31] | 863 | 8260 | –
CCc1cc2cc(C(OCCN(C)C)C3CCCCC3)ccc2[nH]c1=O (stereo not drawn) [Co. No. 10] | > 1000 | – | –

SMILES | IC50 (PARP-1 enzyme [1]) [nM] | IC50 (PARP-1 enzyme [2]) [nM] | melting point [°C]
CCc1cc2cc(C(C3CC=CCC3)N3CCC(=O)CC3)ccc2[nH]c1=O (stereo not drawn) [Co. No. 24] | 277 | 1330 | –
CCc1cc2cc(C(CC(C)C)N3CCC(=O)CC3)ccc2[nH]c1=O (stereo not drawn) [Co. No. 16] | 230 | 1840 | –
CCc1cc2cc(C(c3cccs3)N3CCC(NCCOC)CC3)ccc2[nH]c1=O (stereo not drawn) [Co. No. 12] | 188 | 2270 | –
CCc1nc2cc(C(C(C)C)N3CCC(=O)CC3)ccc2[nH]c1=O (stereo not drawn) [Co. No. 19] | 757 | – | –
CCc1cc2cc(C(O)C3CCN(Cc4ccccc4)CC3)ccc2[nH]c1=O (stereo not drawn) [Co. No. 27] | 180 | 2200 | –
CCc1cc2cc([C@@H](NCCN(C)C)C3CCCCC3)ccc2[nH]c1=O [Co. No. 29] | 841 | 5420 | –
CCc1cc2cc(C(C3CCCCC3)N3CCC(O)CC3)ccc2[nH]c1=O (stereo not drawn) [Co. No. 34] | 853 | 2430 | –
CCc1cc2cc(C(O)C3CCCCC3)ccc2[nH]c1=O (stereo not drawn) [Co. No. 28] | 288 | 3150 | –
CCc1cc2cc(C(NCCOC)C3CCCCC3)ccc2[nH]c1=O (stereo not drawn) [Co. No. 18] | 750 | 2990 | –
CCc1cc2cc(C(c3ccsc3)N3CCC(NCCOC)CC3)ccc2[nH]c1=O (stereo not drawn) [Co. No. 32] | 196 | 2830 | –
CCc1cc2cc(C(C3CCCCC3)N3CCN(C)CC3)ccc2[nH]c1=O (stereo not drawn) [Co. No. 21] | 902 | – | –
CCc1cc2cc(C(O)CN3CCN(C)CC3)ccc2[nH]c1=O (stereo not drawn) [Co. No. 14] | 388 | 1840 | –
CCc1cc2cc(C(C(CC)CC)N3CCC(=O)CC3)ccc2[nH]c1=O (stereo not drawn) [Co. No. 17] | 383 | 2560 | –
CCCCC(c1ccc2[nH]c(=O)c(CC)cc2c1)N1CCC(NCCOC)CC1 (stereo not drawn) [Co. No. 33] | 832 | 4210 | –
CCc1cc2cc(CN3CCN(Cc4ccccc4)CC3)ccc2[nH]c1=O [Co. No. 7] | 94.6 | – | 194

From patent publication US7652014B2, “Substituted 6-cyclohexylalkyl substituted 2-quinolinones and 2-quinoxalinones as poly(ADP-ribose) polymerase inhibitors” (Janssen Pharmaceutica, priority 2003, dated 2010)
